Legend:
[1] = biological target: CSF1R (Homo sapiens (Human), UniProt P07333); type: biochemical; conditions: Kinase Profiler
[2] = test system: NFKB activity in PANC-1 cells; test: TNF-induced NFKB activity (NFKB-dependent luciferase reporter); conditions: 10 ng/ml rHuTNF, PANC-1 reporter cells
[3] = test system: MC38 colorectal carcinoma tumours; test: MC38 syngeneic mouse model, E9 and anti-PD-1 alone and in combination (Example 10); type: in vivo, C57Bl/6N mice; conditions: E9 25 mg/Kg twice daily and/or anti-PD-1 mAb
[4] = Human plasma-protein binding
[5] = in vivo; conditions: male, CD1, mouse, po, 30 mg/kg
[6] = in vivo, po, 30 mg/kg
[7] = test system: HCT116 cells; test: TNF-sensitised cell viability assay (CellTiter-Glo); conditions: Homo sapiens, HCT-116, read-out: HCT116 IC50 (at 10 ng/ml rHuTNF)
[8] = test system: NFKB activity in reporter PANC-1 cells; test: NFKB luciferase reporter activity in PANC-1 cells; type: cell-based; conditions: Homo sapiens; PANC-1 reporter cells, +10 ng/ml rHuTNF for 8 h
Experimental: Luciferase activity was normalized to PANC-1 cells treated with rHuTNF without inhibitor (DMSO only). Y-axis=NFKB activity (%). […] Whole cell lysates were analyzed in a Meso Scale Discovery (MSD) assay with anti-HDAC4 capture and anti-pHDAC4 detection antibodies. HDAC4 phosphorylation was normalized to untreated PANC-1 cells (DMSO only). Y-axis=HDAC4 phosphorylation (%). X-axis=Compound concentration (nM).
FIG. 28: depicts: (A) and (B) effect of compound E9 on NFKB activity. […] Luciferase activity was normalised to cells treated with rHuTNF without inhibitor (DMSO only). Y-axis=NFKB activity (%). X-axis=compound concentration (nM); Bar “A” viability without compound and without TNF; bar “B” viability without compound and with 10 ng/ml TNF; and (C) Effect of compound E9 on HDAC4 phosphorylation. […] Whole cell lysates were analysed in a Meso Scale Discovery (MSD) assay with anti-HDAC4 capture and anti-pHDAC4 detection antibodies. HDAC4 phosphorylation was normalized to untreated PANC-1 cells (DMSO only). Y-axis=HDAC4 phosphorylation (%). X-axis=Compound concentration (nM).

[9] = Screening PK in mice after 30 mg/kg po; conditions: for concentration at 6 h: mice, 30 mg/kg po
[10] = test system: HDAC4 phosphorylation in PANC-1 cells; test: HDAC4 phosphorylation (Meso Scale Discovery assay); conditions: 10 ng/mL rHuTNF, 3 h
[11] = Human hepatocyte stability; type: in vitro ADME
[12] = test system: NFKB activity in MC38 cells; test: TNF-induced NFKB activity (NFKB-dependent luciferase reporter); conditions: 10 ng/ml rMuTNF
[13] = total plasma concentration at 30 mg/kg p.o dose, fold of C7 (C7 = 1×)

Chain of CSF1R (P07333 20-972 limits assumed): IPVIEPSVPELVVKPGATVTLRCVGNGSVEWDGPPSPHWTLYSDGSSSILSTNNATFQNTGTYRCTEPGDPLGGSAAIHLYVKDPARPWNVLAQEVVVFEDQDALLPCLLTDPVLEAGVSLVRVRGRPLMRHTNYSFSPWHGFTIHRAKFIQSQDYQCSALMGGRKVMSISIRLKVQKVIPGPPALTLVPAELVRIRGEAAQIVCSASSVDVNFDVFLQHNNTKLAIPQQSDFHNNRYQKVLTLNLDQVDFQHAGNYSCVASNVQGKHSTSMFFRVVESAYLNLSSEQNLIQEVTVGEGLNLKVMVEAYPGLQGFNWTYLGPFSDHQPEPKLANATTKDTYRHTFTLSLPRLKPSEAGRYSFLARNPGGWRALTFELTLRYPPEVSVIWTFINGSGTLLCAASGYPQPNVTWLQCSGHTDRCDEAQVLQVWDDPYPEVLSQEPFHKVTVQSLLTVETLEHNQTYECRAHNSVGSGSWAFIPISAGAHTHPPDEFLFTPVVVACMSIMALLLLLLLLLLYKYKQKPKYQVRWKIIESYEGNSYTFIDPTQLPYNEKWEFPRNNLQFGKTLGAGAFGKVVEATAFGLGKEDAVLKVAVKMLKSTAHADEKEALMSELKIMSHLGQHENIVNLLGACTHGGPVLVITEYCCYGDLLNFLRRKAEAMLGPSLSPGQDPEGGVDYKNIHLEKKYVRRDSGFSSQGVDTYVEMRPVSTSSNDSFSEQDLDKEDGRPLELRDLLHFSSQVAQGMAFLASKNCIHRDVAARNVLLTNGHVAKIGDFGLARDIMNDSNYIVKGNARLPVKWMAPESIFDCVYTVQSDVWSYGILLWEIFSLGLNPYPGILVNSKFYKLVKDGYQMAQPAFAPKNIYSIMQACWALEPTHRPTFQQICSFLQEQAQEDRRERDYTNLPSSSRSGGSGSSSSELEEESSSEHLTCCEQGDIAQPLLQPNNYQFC

With `Cc1nc(Nc2ncc(C(=O)Nc3c(CF)csc3Cl)s2)cc(N2CCN(C)CC2)n1` [Compound E9, N-(2-chloro-4-(fluoromethyl)thiophen-3-yl)-2-((2-methyl-6-(4-methylpiperazin-1-yl)pyrimidin-4-yl)amino)thiazole-5-carboxamide] the CSF1R residual activity [1] was “less than 1%”, the “Inhibition of NFKB activity (PANC-1)” value [2] was “++” and the TGI [3] was 73%. For the same molecule, the “Human plasma-protein binding, Percentage unbound (%)” value ([4]; Table 5.1A) was 1%, the recovery at 4 h ([4]; human, plasma) was 92% and the AUC(0-inf) [5] was 9.63 µM·h. For the same molecule, the AUC(0-t) [5] was 9.58 µM·h, the Cmax [5] was 2.69 µg/mL and the MRT last [5] was 203 min. For the same molecule, the Tmax [5] was 15 min, the half-life [5] was 166 min and the “% AUCextrap, Free” value ([6]; male, CD1, mouse) was 0.49%. The “% AUCextrap, Total” value ([6]; male, CD1, mouse) was 0.49%, the “AUCinf (nM*h), Free” value ([6]; male, CD1, mouse) was 239.92 nM·h and the “AUClast (nM*h), Free” value ([6]; male, CD1, mouse) was 238.75 nM·h. The “Rsq, Free” value ([6]; mouse) was 0.84, the “Rsq, Total” value ([6]; mouse) was 0.84 and the IC50 [7] was < 0.1 µM. The EC50 [8] was 0.405 µM, the “fold improvement of free serum concentration over C7” value ([9]; mouse, in vivo) was 2 fold and the “fold improvement of total serum concentration over C7” value ([9]; mouse, in vivo) was 4.5 fold. The Cmax at 2 h ([9]; mouse, plasma, po, 30 mg/kg) was 0.426 µg/mL, the concentration at 6 h ([9]; mouse, plasma, po, 30 mg/kg, Free plasma concentration after 6 h (nM)) was 7.7 nM and the concentration at 6 h ([9]; mouse, plasma, po, 30 mg/kg, Plasma concentration after 6 h (nM)) was 309 nM. The “AUC0-last (nM*h), relative to C7” value [9, 13] was 8.2×, the “C max (ng/ml), relative to C7” value [9, 13] was 5.6× and the “MRT0-last (h), relative to C7” value [9, 13] was 1.2×. The “t1/2 (h), relative to C7” value [9, 13] was 2×, the “Inhibition of HDAC4 phosphorylation” value [10] was “++” and the “Human hepatocyte stability, Half-life” value [11] was 24 min. The half-life ([11]; human, hepatocytes, read-out: Human hepatocyte stability, Half-life) was 21 to 30 min, the microsomal CLint ([11]; human, hepatocytes, read-out: Human hepatocyte stability, Intrinsic clearance) was 58 µL/min/mg and the “Inhibition of NFKB activity (MC38)” value [12] was “++”.

— US20230348453A1, “HALOGENATED-HETEROARYL AND OTHER HETEROCYCLIC KINASE INHIBITORS, AND USES THEREOF” (iOmx Therapeutics AG, priority 2020, published 2023)
